Laboratory results taken from EP0025288A1, “Derivatives of monic acid, processes for their preparation, compositions containing them and their preparation” (priority 1979, dated 1981).
≈ marks a conversion by molar mass, not a printed value.

What was measured:
M. suipneumoniae JF 435 = assay: MIC, anti-mycoplasmal, Friis broth solidified with 0.9% agarose; format: cell-based; conditions: Mesomycoplasma hyopneumoniae, JF435, 144 h, inoculum 10^3 to 10^5 C.F.U., 6 days incubation at 37°C, read-out: in vitro MIC
Past multocida PA1 = assay: MIC, veterinary bacteria; format: cell-based; conditions: veterinary bacteria (Table 2), read-out: MIC
M. suipneumoniae MS 16 = assay: MIC, anti-mycoplasmal, Friis broth solidified with 0.9% agarose; format: cell-based; conditions: Mesomycoplasma hyopneumoniae, MS16, 144 h, inoculum 10^3 to 10^5 C.F.U., 6 days incubation at 37°C, read-out: in vitro MIC
[1] = system: Corynebacterium pyogenes CY1; assay: MIC, veterinary bacteria; format: cell-based; conditions: veterinary bacteria (Table 2), read-out: MIC
M. suipneumoniae LABER = assay: MIC, anti-mycoplasmal, Friis broth solidified with 0.9% agarose; format: cell-based; conditions: Mesomycoplasma hyopneumoniae, 144 h, inoculum 10^3 to 10^5 C.F.U., 6 days incubation at 37°C, read-out: in vitro MIC
[2] = system: Strep suis (group D) SPS11; assay: MIC, veterinary bacteria; format: cell-based; conditions: veterinary bacteria (Table 2), read-out: MIC
[3] = Mean serum concentration in neonatal piglets after intramuscular or oral administration; format: in vivo; conditions: pig, 50 mg/kg; for concentration at 1 h: 60'
Method: e) Mean serum concentration in neonatal piglets of Examples 4 and 5 after intramuscular or oral administration at 50 mg/kg
Blood levels were assessed in neonatal piglets (2 to 4 animals per group and man bodyweights about 2 kg). The dose was 50 mg/kg (dose solution = 25 mg/ml in 25% ethanol). Doses were given by intramuscular injection and orally by stomach tube. Piglets were bled at intervals up to 8 and at 24 hours, and serum assayed microbiologically (B. subtilis ATCC 6633).

[4] = system: M. suipneumoniae ATCC 25095; assay: MIC, anti-mycoplasmal, Friis broth solidified with 0.9% agarose; format: cell-based; conditions: Mesomycoplasma hyopneumoniae, ATCC25095, 144 h, inoculum 10^3 to 10^5 C.F.U., 6 days incubation at 37°C, read-out: in vitro MIC
M. suipneumoniae TAM 6N = assay: as above; format: cell-based; conditions: Mesomycoplasma hyopneumoniae, TAM6N, 144 h, inoculum 10^3 to 10^5 C.F.U., 6 days incubation at 37°C, read-out: in vitro MIC
S typhimurium S18 = assay: MIC, veterinary bacteria; format: cell-based; conditions: veterinary bacteria (Table 2), read-out: MIC
Past multocida PA2 = assay: MIC, veterinary bacteria; format: cell-based; conditions: veterinary bacteria (Table 2), read-out: MIC
Bord bronchisptica BO9 = assay: MIC, veterinary bacteria; format: cell-based; conditions: veterinary bacteria (Table 2), read-out: MIC
M. hyorhinis ATCC 25021 = assay: MIC, anti-mycoplasmal, Friis broth solidified with 0.9% agarose; format: cell-based; conditions: Mesomycoplasma hyorhinis, ATCC25021, 144 h, inoculum 10^3 to 10^5 C.F.U., 6 days incubation at 37°C, read-out: in vitro MIC
Staph aureus Oxford = assay: MIC, veterinary bacteria; format: cell-based; conditions: Staphylococcus aureus, veterinary bacteria (Table 2), read-out: MIC
Strep uberis SPU1 = assay: MIC, veterinary bacteria; format: cell-based; conditions: veterinary bacteria (Table 2), read-out: MIC
[5] = system: Staph aureus 152 (pen sens); assay: MIC, veterinary bacteria; format: cell-based; conditions: Staphylococcus aureus, veterinary bacteria (Table 2), read-out: MIC
M. pneumoniae ATCC 15492 = assay: MIC, anti-mycoplasmal, Friis broth solidified with 0.9% agarose; format: cell-based; conditions: Mycoplasmoides pneumoniae, ATCC15492, 144 h, inoculum 10^3 to 10^5 C.F.U., 6 days incubation at 37°C, read-out: in vitro MIC
[6] = system: M. suipneumoniae J2206/183b; assay: as above; format: cell-based; conditions: Mesomycoplasma hyopneumoniae, 144 h, inoculum 10^3 to 10^5 C.F.U., 6 days incubation at 37°C, read-out: in vitro MIC
M. bovis NCTC 10131 = assay: microbe, parasite or virus in culture; format: cell-based; conditions: NCTC10131, 144 h, read-out: in vitro MIC
[7] = system: M. suipneumoniae NCTC 10110; assay: MIC, anti-mycoplasmal, Friis broth solidified with 0.9% agarose; format: cell-based; conditions: Mesomycoplasma hyopneumoniae, NCTC10110, 144 h, inoculum 10^3 to 10^5 C.F.U., 6 days incubation at 37°C, read-out: in vitro MIC
E coli E1 = assay: MIC, veterinary bacteria; format: cell-based; conditions: veterinary bacteria (Table 2), read-out: MIC
[8] = system: M. bovigenitalium ATCC 14173; assay: MIC, anti-mycoplasmal, Friis broth solidified with 0.9% agarose; format: cell-based; conditions: 144 h, inoculum 10^3 to 10^5 C.F.U., 6 days incubation at 37°C, read-out: in vitro MIC
M. suipneumoniae UCD 1 = assay: as above; format: cell-based; conditions: Mesomycoplasma hyopneumoniae, UCD1, 144 h, inoculum 10^3 to 10^5 C.F.U., 6 days incubation at 37°C, read-out: in vitro MIC
[9] = Serum binding by ultrafiltration; format: in vitro ADME, pig; conditions: pig, serum, compounds at 8 mcg/ml, microbiological assay (B. subtilis ATCC 6633), read-out: % bound to pig serum (converted)
Method: Serum binding was assessed by ultrafiltration of procine serum containing compounds at 8 mcg/ml, and through an Amicon CF50A ultrafiltration cone. Separation of ultrafiltrate was achieved by centrifugation.

Bord bronchiseptica BO8 = assay: MIC, veterinary bacteria; format: cell-based; conditions: veterinary bacteria (Table 2), read-out: MIC
Strep dysgalaciae SPD1 = assay: MIC, veterinary bacteria; format: cell-based; conditions: veterinary bacteria (Table 2), read-out: MIC
M. dispar NCTC 10125 = assay: MIC, anti-mycoplasmal, Friis broth solidified with 0.9% agarose; format: cell-based; conditions: 144 h, inoculum 10^3 to 10^5 C.F.U., 6 days incubation at 37°C, read-out: in vitro MIC
M. suipneumoniae NB12 = assay: as above; format: cell-based; conditions: Mesomycoplasma hyopneumoniae, 144 h, inoculum 10^3 to 10^5 C.F.U., 6 days incubation at 37°C, read-out: in vitro MIC
[10] = system: M. hyosynoviae ATCC 25591; assay: as above; format: cell-based; conditions: 144 h, inoculum 10^3 to 10^5 C.F.U., 6 days incubation at 37°C, read-out: in vitro MIC
S dublin S7 = assay: MIC, veterinary bacteria; format: cell-based; conditions: veterinary bacteria (Table 2), read-out: MIC

Compound: CC(=CC(=O)OCCCC(=O)c1ccccc1)CC1OCC(CC2OC2C(C)C(C)O)C(O)C1O (stereo not shown) [Example 5, 4-Phenylbutan-4-onyl monate A]
- MIC (M. suipneumoniae JF 435): 0.5 µg/mL (≈ 1.02 µM)
- MIC (Past multocida PA1): 1.25 µg/mL (≈ 2.55 µM)
- MIC (M. suipneumoniae MS 16): 0.25 µg/mL (≈ 0.51 µM)
- MIC [1]: > 80 µg/mL
- MIC (M. suipneumoniae LABER): 0.25 µg/mL (≈ 0.51 µM)
- MIC [2]: 5 µg/mL (≈ 10.2 µM)
- concentration at 10 min ([3]; im): 1900 ng/mL
- concentration at 20 min ([3]; im): 2300 ng/mL
- concentration at 40 min ([3]; im): 1500 ng/mL
- concentration at 1 h ([3]; im): 1200 ng/mL
- concentration at 2 h ([3]; im): 570 ng/mL
- concentration at 3 h ([3]; im): 380 ng/mL
- concentration at 4 h ([3]; im): 330 ng/mL
- concentration at 6 h ([3]; im): 310 ng/mL
- concentration at 8 h ([3]; im): 180 ng/mL
- concentration at 24 h ([3]; im): < 200 ng/mL
- concentration at 10 min ([3]; po): 1200 ng/mL
- concentration at 20 min ([3]; po): 1200 ng/mL
- concentration at 40 min ([3]; po): 1200 ng/mL
- concentration at 1 h ([3]; po): 860 ng/mL
- concentration at 2 h ([3]; po): 230 ng/mL
- concentration at 3 h ([3]; po): 160 ng/mL
- concentration at 4 h ([3]; po): 80 ng/mL
- concentration at 6 h ([3]; po): 50 ng/mL
- concentration at 8 h ([3]; po): 30 ng/mL
- concentration at 24 h ([3]; po): < 200 ng/mL
- MIC [4]: 0.25 µg/mL (≈ 0.51 µM)
- MIC (M. suipneumoniae TAM 6N): 0.5 µg/mL (≈ 1.02 µM)
- MIC (S typhimurium S18): 80 µg/mL (≈ 163 µM)
- MIC (Past multocida PA2): 0.312 µg/mL (≈ 0.636 µM)
- MIC (Bord bronchisptica BO9): 5 µg/mL (≈ 10.2 µM)
- MIC (M. hyorhinis ATCC 25021): 0.25 µg/mL (≈ 0.51 µM)
- MIC (Staph aureus Oxford): 0.156 µg/mL (≈ 0.318 µM)
- MIC (Strep uberis SPU1): 0.07 µg/mL (≈ 0.143 µM)
- MIC [5]: 0.156 µg/mL (≈ 0.318 µM)
- MIC (M. pneumoniae ATCC 15492): 1 µg/mL (≈ 2.04 µM)
- MIC [6]: 0.5 µg/mL (≈ 1.02 µM)
- MIC (M. bovis NCTC 10131): ≤ 0.01 µg/mL
- MIC [7]: 0.5 µg/mL (≈ 1.02 µM)
- MIC (E coli E1): 80 µg/mL (≈ 163 µM)
- MIC [8]: 0.025 µg/mL (≈ 0.051 µM)
- MIC (M. suipneumoniae UCD 1): 0.5 µg/mL (≈ 1.02 µM)
- fraction unbound [9]: 0.036
- MIC (Bord bronchiseptica BO8): 40 µg/mL (≈ 81.5 µM)
- MIC (Strep dysgalaciae SPD1): 0.07 µg/mL (≈ 0.143 µM)
- MIC (M. dispar NCTC 10125): 0.1 µg/mL (≈ 0.204 µM)
- MIC (M. suipneumoniae NB12): 0.5 µg/mL (≈ 1.02 µM)
- MIC [10]: 0.05 µg/mL (≈ 0.102 µM)
- MIC (S dublin S7): > 80 µg/mL
